From ChEMBL document CHEMBL1201862, “PubChem BioAssay data set” (2004)
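Protocol summary: plate cells (96-well), add compound at 5 concentrations, incubate 48 h, interpolate endpoints linearly. GI50 is the concentration that inhibits growth by half.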 Calls of active or inactive are those of the source. Rule as the data show it: active = GI50 up to about 1.1 µM and inactive = higher.

Columns and labels:
Assay in all cases: NCI anticancer screen, dose series, 48 h
CCRF-CEM = test system: CCRF-CEM
LXFL 529 = test system: LXFL 529
A498 = test system: A498
HL-60 = test system: HL-60
M14 = test system: M14
UO-31 = test system: UO-31
HOP-92 = test system: HOP-92
U-251 = test system: U-251
786-0 = test system: 786-0
LOX IMVI = test system: LOX IMVI
EKVX = test system: EKVX
NCI-H460 = test system: NCI-H460
MOLT-4 = test system: MOLT-4
HCT-116 = test system: HCT-116
RXF 393 = test system: RXF 393
MCF7 = test system: MCF7
DU-145 = test system: DU-145
SR = test system: SR
MDA-MB-231 = test system: MDA-MB-231
NCI/ADR-RES = test system: NCI/ADR-RES

Row | Compound | GI50 (CCRF-CEM) | GI50 (LXFL 529) | GI50 (A498) | GI50 (HL-60) | GI50 (M14) | GI50 (UO-31) | GI50 (HOP-92) | GI50 (U-251) | GI50 (786-0) | GI50 (LOX IMVI) | GI50 (EKVX) | GI50 (NCI-H460) | GI50 (MOLT-4) | GI50 (HCT-116) | GI50 (RXF 393) | GI50 (MCF7) | GI50 (DU-145) | GI50 (SR) | GI50 (MDA-MB-231) | GI50 (NCI/ADR-RES)
1 | O=c1[nH]c(=O)n([C@H]2C[C@@H](CO)[C@@H](O)C2)cc1I | > 100 µM (inactive) | > 100 µM (inactive) | > 100 µM (inactive) | > 100 µM (inactive) | > 100 µM (inactive) | > 100 µM (inactive) | > 100 µM (inactive) | > 100 µM (inactive) | > 100 µM (inactive) | > 100 µM (inactive) | > 100 µM (inactive) | > 100 µM (inactive) | > 100 µM (inactive) | > 100 µM (inactive) |  |  |  |  |  | 
2 | Cc1ccc(Nc2nc3c(s2)C(=O)c2ccccc2C3=O)c(C)c1 | 4.13 µM (inactive) | 15 µM (inactive) | 34 µM (inactive) | 2.19 µM (inactive) | 14.3 µM (inactive) | 14.3 µM (inactive) | 9.48 µM (inactive) | 18.9 µM (inactive) | 17.5 µM (inactive) | 13.3 µM (inactive) | 18.3 µM (inactive) | 22.2 µM (inactive) | 3.94 µM (inactive) |  | 15.6 µM (inactive) |  |  |  |  | 
3 | COc1ccc2nc3ccccc3c(NCCCCCCN(C)CCCl)c2c1 | 0.0368 µM (active) | 0.262 µM (active) | 1.16 µM (inactive) | 0.0312 µM (active) | 0.834 µM (active) | 1.36 µM (inactive) | 0.158 µM (active) | 0.286 µM (active) | 0.177 µM (active) | 0.162 µM (active) | 1.39 µM (inactive) | 0.0569 µM (active) | < 0.01 µM (active) | 0.0887 µM (active) | 0.367 µM (active) |  |  |  |  | 
4 | COc1ccc2c(c1)Oc1cc(O)ccc1[C@H]2c1ccccc1C(=O)NC(C)c1ccccc1 (some centres undefined) | 16 µM (inactive) | 15.3 µM (inactive) | 16.9 µM (inactive) | 14.4 µM (inactive) | 13.1 µM (inactive) | 10.9 µM (inactive) |  | 14.4 µM (inactive) | 17.9 µM (inactive) | 16.9 µM (inactive) | 16.5 µM (inactive) | 13.3 µM (inactive) | 9.73 µM (inactive) | 13.6 µM (inactive) | 18.7 µM (inactive) |  |  |  |  | 
5 | Nn1c(-c2cccc(Cl)c2)nc2ccccc2c1=O | 51.5 µM (inactive) | > 100 µM (inactive) | > 100 µM (inactive) | > 100 µM (inactive) | > 100 µM (inactive) | > 100 µM (inactive) | > 100 µM (inactive) | > 100 µM (inactive) | > 100 µM (inactive) |  | > 100 µM (inactive) | > 100 µM (inactive) | 60.1 µM (inactive) | > 100 µM (inactive) |  |  |  |  |  | 
6 | O=CC12c3ccccc3C(c3ccccc31)C1C(=O)NC(=O)C12 (centres undefined) | 41.7 µM (inactive) |  | 10.8 µM (inactive) | > 100 µM (inactive) | > 100 µM (inactive) | 44.7 µM (inactive) | > 100 µM (inactive) | > 100 µM (inactive) | > 100 µM (inactive) | 50.1 µM (inactive) | > 100 µM (inactive) | > 100 µM (inactive) | 97.3 µM (inactive) | 45.9 µM (inactive) | 76.2 µM (inactive) | 0.953 µM (active) | > 100 µM (inactive) | > 100 µM (inactive) | > 100 µM (inactive) | > 100 µM (inactive)
7 | C=C1C(O)C2OC(=O)C(=C)C2C(OC(=O)/C(C)=C/C)CC2(C)OC2C2OC12 (centres undefined) | 12.6 µM (inactive) |  | 15.3 µM (inactive) | 2.52 µM (inactive) | 18 µM (inactive) | 5.98 µM (inactive) | 19.4 µM (inactive) | 17.2 µM (inactive) | 6.31 µM (inactive) | 6.68 µM (inactive) | 10.4 µM (inactive) | 3.78 µM (inactive) | 0.634 µM (active) | 5.22 µM (inactive) | 4.85 µM (inactive) | 4.44 µM (inactive) | 7.14 µM (inactive) | 1.93 µM (inactive) | 8.36 µM (inactive) | 7.93 µM (inactive)
8 | O=C(O)COc1cccc2ccccc(=O)c12 | > 100 µM (inactive) |  | > 100 µM (inactive) | > 100 µM (inactive) | > 100 µM (inactive) | > 100 µM (inactive) | > 100 µM (inactive) | > 100 µM (inactive) | > 100 µM (inactive) | > 100 µM (inactive) | > 100 µM (inactive) | > 100 µM (inactive) | > 100 µM (inactive) | > 100 µM (inactive) | > 100 µM (inactive) | > 100 µM (inactive) | > 100 µM (inactive) | > 100 µM (inactive) | > 100 µM (inactive) | > 100 µM (inactive)
9 | O=CC(O)C(O)C(O)C(O)C(=O)NCCCCCCCCCCCCNC(=O)C(O)C(O)C(O)C(O)C=O (centres undefined) | > 100 µM (inactive) |  | > 100 µM (inactive) | > 100 µM (inactive) | > 100 µM (inactive) | > 100 µM (inactive) | > 100 µM (inactive) | > 100 µM (inactive) | > 100 µM (inactive) | > 100 µM (inactive) | > 100 µM (inactive) | > 100 µM (inactive) | > 100 µM (inactive) | > 100 µM (inactive) | > 100 µM (inactive) | > 100 µM (inactive) | > 100 µM (inactive) | > 100 µM (inactive) | > 100 µM (inactive) | > 100 µM (inactive)
10 | O=C(NCCCCCCNC(=O)OCCSCCn1cc(C(=O)NC(=O)OCc2ccccc2)c(=O)[nH]c1=O)OCCSCCn1cc(C(=O)NC(=O)OCc2ccccc2)c(=O)[nH]c1=O | > 100 µM (inactive) | > 100 µM (inactive) | > 100 µM (inactive) |  | > 100 µM (inactive) | 55.8 µM (inactive) | 32.1 µM (inactive) | > 100 µM (inactive) | > 100 µM (inactive) | > 100 µM (inactive) | > 100 µM (inactive) | > 100 µM (inactive) | > 100 µM (inactive) |  | 45.5 µM (inactive) |  |  |  |  | 
11 | COC(=O)C(CCC1C=CN(S(=O)(=O)c2ccc(C)cc2)C1)/N=C/c1ccccc1 (centres undefined) | 1.99 µM (inactive) |  | 99.3 µM (inactive) | 1.29 µM (inactive) | 42.7 µM (inactive) | 65.5 µM (inactive) | 29.7 µM (inactive) | 43.5 µM (inactive) | 43.8 µM (inactive) | 47.4 µM (inactive) | 42.2 µM (inactive) | 44.9 µM (inactive) | 32.8 µM (inactive) | 33.4 µM (inactive) | 75.5 µM (inactive) | 34.2 µM (inactive) | 43 µM (inactive) | 23.4 µM (inactive) | 39.6 µM (inactive) | > 100 µM (inactive)
12 | CCOC(=O)C1CC(=O)C=C2CCCCC21 (centres undefined) | > 100 µM (inactive) | > 100 µM (inactive) | > 100 µM (inactive) | > 100 µM (inactive) | > 100 µM (inactive) | > 100 µM (inactive) | > 100 µM (inactive) | > 100 µM (inactive) | > 100 µM (inactive) | > 100 µM (inactive) | > 100 µM (inactive) | > 100 µM (inactive) | > 100 µM (inactive) | > 100 µM (inactive) | > 100 µM (inactive) |  |  |  |  | 
13 | Cn1ccnc1CCc1ccc(Cl)cc1Cl | > 100 µM (inactive) | > 100 µM (inactive) | > 100 µM (inactive) | 68.1 µM (inactive) | > 100 µM (inactive) | 49.5 µM (inactive) | 49.9 µM (inactive) | > 100 µM (inactive) | > 100 µM (inactive) | > 100 µM (inactive) | 48.8 µM (inactive) | > 100 µM (inactive) | > 100 µM (inactive) | > 100 µM (inactive) | 35.4 µM (inactive) |  |  |  |  | 
14 | Cc1c(C(=O)OCc2ccccc2)[n+]([O-])c2cc(F)c(F)cc2[n+]1[O-] | 0.944 µM (active) |  | 1.42 µM (inactive) | 1.06 µM (active) | 1.77 µM (inactive) | 1.79 µM (inactive) | 2.21 µM (inactive) | 2.3 µM (inactive) | 4.58 µM (inactive) | 0.421 µM (active) | 3.26 µM (inactive) | 2.46 µM (inactive) | 1.96 µM (inactive) | 1.63 µM (inactive) | 2.38 µM (inactive) | 2.31 µM (inactive) | 2.41 µM (inactive) | 0.877 µM (active) | 1.8 µM (inactive) | 3.22 µM (inactive)
15 | C[n+]1c(-c2ccc(/C=N\N3CCN(/N=C/c4ccc(-c5cn6ccsc6[n+]5C)cc4)CC3)cc2)cn2ccsc21 | 36.7 µM (inactive) |  | 23.1 µM (inactive) | 21.2 µM (inactive) | 44.8 µM (inactive) | 89.5 µM (inactive) | 42.3 µM (inactive) | 30.3 µM (inactive) | 26.1 µM (inactive) | 60.8 µM (inactive) | 43.5 µM (inactive) | 26.7 µM (inactive) | 85.3 µM (inactive) | 33.3 µM (inactive) | 27.3 µM (inactive) | 29.9 µM (inactive) | 23.3 µM (inactive) | 41.4 µM (inactive) | 20.7 µM (inactive) | > 100 µM (inactive)
16 | COc1ccc(NC(=O)CC/C(CC(=O)c2ccco2)=N/NC(N)=S)cc1 | > 100 µM (inactive) | > 100 µM (inactive) | > 100 µM (inactive) | > 100 µM (inactive) | > 100 µM (inactive) | > 100 µM (inactive) | > 100 µM (inactive) | > 100 µM (inactive) | > 100 µM (inactive) | > 100 µM (inactive) | > 100 µM (inactive) | > 100 µM (inactive) | > 100 µM (inactive) | > 100 µM (inactive) |  |  |  |  |  | 
17 | CC1=C2[C@@H](c3ccccc3)C3C=CC2(c2ccccc23)N(C(=O)Nc2cccc3ccccc23)C1=O (some centres undefined) | > 100 µM (inactive) | > 100 µM (inactive) | > 100 µM (inactive) | > 100 µM (inactive) | > 100 µM (inactive) | > 100 µM (inactive) | > 100 µM (inactive) | > 100 µM (inactive) | > 100 µM (inactive) | > 100 µM (inactive) | > 100 µM (inactive) |  | > 100 µM (inactive) | > 100 µM (inactive) |  |  |  | > 100 µM (inactive) |  | 
